# In ChEMBL document CHEMBL1144985, “Rational design, synthesis and structure-activity relationships of a cyclic succinate series of TNF-alpha converting enzyme inhibitors. Part 2: lead optimization” (Bioorg Med Chem Lett, 2003):
# Biological target: Matrix metalloproteinase-9 (Homo sapiens, UniProt P14780)
# Test: Inhibitory activity against matrix metalloprotease-9 (MMP-9)
# Conditions: not given
# Matrix metalloproteinase-9, sequence (P14780 whole entry): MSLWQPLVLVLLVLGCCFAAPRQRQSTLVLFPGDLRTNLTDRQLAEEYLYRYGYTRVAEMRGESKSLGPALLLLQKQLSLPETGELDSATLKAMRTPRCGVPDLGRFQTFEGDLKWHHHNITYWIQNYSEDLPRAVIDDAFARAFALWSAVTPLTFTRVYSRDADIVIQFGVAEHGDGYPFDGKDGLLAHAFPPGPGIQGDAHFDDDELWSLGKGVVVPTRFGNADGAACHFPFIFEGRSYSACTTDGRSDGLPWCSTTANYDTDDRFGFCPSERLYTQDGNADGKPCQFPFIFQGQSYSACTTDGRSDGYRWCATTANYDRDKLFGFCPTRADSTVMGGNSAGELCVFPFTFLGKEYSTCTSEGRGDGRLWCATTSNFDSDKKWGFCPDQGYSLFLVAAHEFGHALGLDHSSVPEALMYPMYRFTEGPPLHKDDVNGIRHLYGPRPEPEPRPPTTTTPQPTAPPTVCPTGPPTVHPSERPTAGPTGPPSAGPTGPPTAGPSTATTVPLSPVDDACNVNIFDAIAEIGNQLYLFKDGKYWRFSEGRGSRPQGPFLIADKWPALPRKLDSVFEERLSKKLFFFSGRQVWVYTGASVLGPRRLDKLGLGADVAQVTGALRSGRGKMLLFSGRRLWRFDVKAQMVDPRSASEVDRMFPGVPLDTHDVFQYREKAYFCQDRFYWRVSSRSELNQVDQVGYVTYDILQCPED
row,SMILES,Ki
1,Cc1cc(COc2ccc(NC(=O)[C@H]3CCN(C(=O)OC4CC4)C[C@@H]3C(=O)NO)cc2)c2ccccc2n1,209 nM
2,Cc1cc(COc2ccc(NC(=O)[C@H]3NCCC[C@@H]3C(=O)NO)cc2)c2ccccc2n1,> 2130 nM
3,Cc1cc(COc2ccc(NC(=O)[C@H]3CCN(C(=O)C4CC4)C[C@@H]3C(=O)NO)cc2)c2ccccc2n1,> 1660 nM
4,Cc1cc(COc2ccc(NC(=O)[C@@H]3[C@@H](C(=O)NO)CCCN3Cc3nccs3)cc2)c2ccccc2n1,> 2130 nM
5,Cc1cc(COc2ccc(NC(=O)[C@H]3CCN(C(=O)c4ccco4)C[C@@H]3C(=O)NO)cc2)c2ccccc2n1,> 465 nM

# The remaining lines, values ahead:
row,Ki,SMILES
1,> 2130 nM,O=C(NO)[C@H]1CN(C(=O)C2CC2)CC[C@@H]1C(=O)Nc1ccc(OCc2ccnc3ccccc23)cc1
2,> 2130 nM,Cc1cc(COc2ccc(NC(=O)[C@@H]3[C@@H](C(=O)NO)CCCN3CC3CC3)cc2)c2ccccc2n1
3,> 2130 nM,CCN1CCC[C@H](C(=O)NO)[C@H]1C(=O)Nc1ccc(OCc2cc(C)nc3ccccc23)cc1
4,> 2130 nM,Cc1cc(COc2ccc(NC(=O)[C@H]3CCN(C(=O)C(C)C)C[C@@H]3C(=O)NO)cc2)c2ccccc2n1

# Tested on: not listed separately
# Test: Solubility was determined
# Conditions: not given
row,SMILES,solubility
1,Cc1cc(COc2ccc(NC(=O)[C@H]3CCN(C(=O)C4CC4)C[C@@H]3C(=O)NO)cc2)c2ccccc2n1,50 µg/mL
2,CCN1CCC[C@H](C(=O)NO)[C@H]1C(=O)Nc1ccc(OCc2cc(C)nc3ccccc23)cc1,> 10000 µg/mL
3,Cc1cc(COc2ccc(NC(=O)[C@H]3CCN(C(=O)C(C)C)C[C@@H]3C(=O)NO)cc2)c2ccccc2n1,30 µg/mL
4,Cc1cc(COc2ccc(NC(=O)[C@H]3CCN(C(=O)c4ccco4)C[C@@H]3C(=O)NO)cc2)c2ccccc2n1,10 µg/mL

# Biological target: T1, Interstitial collagenase (Homo sapiens, UniProt P03956)
# T1 sequence (P03956 whole entry): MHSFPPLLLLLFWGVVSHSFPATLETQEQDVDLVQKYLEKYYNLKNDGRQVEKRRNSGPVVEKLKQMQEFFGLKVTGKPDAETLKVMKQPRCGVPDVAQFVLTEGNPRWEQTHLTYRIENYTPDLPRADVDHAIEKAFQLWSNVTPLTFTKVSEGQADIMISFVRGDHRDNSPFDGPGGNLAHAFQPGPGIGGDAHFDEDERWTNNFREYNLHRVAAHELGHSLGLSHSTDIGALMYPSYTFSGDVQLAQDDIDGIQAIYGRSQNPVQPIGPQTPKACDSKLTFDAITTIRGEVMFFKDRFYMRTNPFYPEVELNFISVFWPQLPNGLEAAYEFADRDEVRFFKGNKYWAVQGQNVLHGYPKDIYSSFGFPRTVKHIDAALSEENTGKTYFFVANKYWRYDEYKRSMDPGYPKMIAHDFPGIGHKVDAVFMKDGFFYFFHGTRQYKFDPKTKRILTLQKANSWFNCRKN
# Test: Inhibitory activity against matrix metalloprotease-1 (MMP-1)
# Conditions: not given
row,SMILES,Ki
1,Cc1cc(COc2ccc(NC(=O)[C@H]3CCN(C(=O)OC4CC4)C[C@@H]3C(=O)NO)cc2)c2ccccc2n1,> 4950 nM
2,Cc1cc(COc2ccc(NC(=O)[C@H]3NCCC[C@@H]3C(=O)NO)cc2)c2ccccc2n1,> 4950 nM
3,Cc1cc(COc2ccc(NC(=O)[C@H]3CCN(C(=O)C4CC4)C[C@@H]3C(=O)NO)cc2)c2ccccc2n1,> 4950 nM
4,Cc1cc(COc2ccc(NC(=O)[C@@H]3[C@@H](C(=O)NO)CCCN3Cc3nccs3)cc2)c2ccccc2n1,> 4950 nM
5,Cc1cc(COc2ccc(NC(=O)[C@H]3CCN(C(=O)c4ccco4)C[C@@H]3C(=O)NO)cc2)c2ccccc2n1,> 4950 nM

# Continued, values first:
row,Ki,SMILES
1,> 4950 nM,O=C(NO)[C@H]1CN(C(=O)C2CC2)CC[C@@H]1C(=O)Nc1ccc(OCc2ccnc3ccccc23)cc1
2,> 4950 nM,Cc1cc(COc2ccc(NC(=O)[C@@H]3[C@@H](C(=O)NO)CCCN3CC3CC3)cc2)c2ccccc2n1
3,> 4950 nM,CCN1CCC[C@H](C(=O)NO)[C@H]1C(=O)Nc1ccc(OCc2cc(C)nc3ccccc23)cc1
4,> 4950 nM,Cc1cc(COc2ccc(NC(=O)[C@H]3CCN(C(=O)C(C)C)C[C@@H]3C(=O)NO)cc2)c2ccccc2n1

# Biological target: 72 kDa type IV collagenase (Homo sapiens, UniProt P08253)
# Sequence (P08253 whole entry): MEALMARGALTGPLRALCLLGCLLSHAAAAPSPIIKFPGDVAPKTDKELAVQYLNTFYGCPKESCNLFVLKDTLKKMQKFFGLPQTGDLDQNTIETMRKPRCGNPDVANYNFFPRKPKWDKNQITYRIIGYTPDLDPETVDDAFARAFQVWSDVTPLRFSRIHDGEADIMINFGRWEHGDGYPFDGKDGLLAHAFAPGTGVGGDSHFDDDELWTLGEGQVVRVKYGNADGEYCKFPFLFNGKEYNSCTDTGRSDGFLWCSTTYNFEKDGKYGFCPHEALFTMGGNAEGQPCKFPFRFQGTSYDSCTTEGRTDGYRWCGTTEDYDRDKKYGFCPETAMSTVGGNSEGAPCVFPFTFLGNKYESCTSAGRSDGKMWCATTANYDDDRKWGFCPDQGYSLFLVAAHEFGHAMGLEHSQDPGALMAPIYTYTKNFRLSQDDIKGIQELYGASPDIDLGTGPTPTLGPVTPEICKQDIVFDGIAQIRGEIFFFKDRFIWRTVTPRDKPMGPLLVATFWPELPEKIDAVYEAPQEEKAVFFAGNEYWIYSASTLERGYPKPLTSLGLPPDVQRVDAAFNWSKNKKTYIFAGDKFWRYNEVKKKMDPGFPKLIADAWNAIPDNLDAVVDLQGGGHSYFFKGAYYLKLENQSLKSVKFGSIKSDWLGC
# Test: Inhibitory activity against matrix metalloprotease-2 (MMP-2)
# Conditions: not given
row,SMILES,Ki
1,Cc1cc(COc2ccc(NC(=O)[C@H]3CCN(C(=O)OC4CC4)C[C@@H]3C(=O)NO)cc2)c2ccccc2n1,642 nM
2,Cc1cc(COc2ccc(NC(=O)[C@H]3NCCC[C@@H]3C(=O)NO)cc2)c2ccccc2n1,> 3330 nM
3,Cc1cc(COc2ccc(NC(=O)[C@H]3CCN(C(=O)C4CC4)C[C@@H]3C(=O)NO)cc2)c2ccccc2n1,> 2450 nM
4,Cc1cc(COc2ccc(NC(=O)[C@@H]3[C@@H](C(=O)NO)CCCN3Cc3nccs3)cc2)c2ccccc2n1,> 3330 nM
5,Cc1cc(COc2ccc(NC(=O)[C@H]3CCN(C(=O)c4ccco4)C[C@@H]3C(=O)NO)cc2)c2ccccc2n1,> 1010 nM

# The next lines start with the values.
row,Ki,SMILES
1,> 3330 nM,O=C(NO)[C@H]1CN(C(=O)C2CC2)CC[C@@H]1C(=O)Nc1ccc(OCc2ccnc3ccccc23)cc1
2,> 3330 nM,Cc1cc(COc2ccc(NC(=O)[C@@H]3[C@@H](C(=O)NO)CCCN3CC3CC3)cc2)c2ccccc2n1
3,> 3330 nM,CCN1CCC[C@H](C(=O)NO)[C@H]1C(=O)Nc1ccc(OCc2cc(C)nc3ccccc23)cc1
4,> 3330 nM,Cc1cc(COc2ccc(NC(=O)[C@H]3CCN(C(=O)C(C)C)C[C@@H]3C(=O)NO)cc2)c2ccccc2n1

# Tested on: Caco-2
# Conditions: Homo sapiens
# Description: Caco-2 permeability was determined
row,SMILES,Papp
1,Cc1cc(COc2ccc(NC(=O)[C@H]3CCN(C(=O)C4CC4)C[C@@H]3C(=O)NO)cc2)c2ccccc2n1,0.2 10e-6 cm s-1
2,Cc1cc(COc2ccc(NC(=O)[C@H]3CCN(C(=O)C(C)C)C[C@@H]3C(=O)NO)cc2)c2ccccc2n1,0.3 10e-6 cm s-1
3,Cc1cc(COc2ccc(NC(=O)[C@H]3CCN(C(=O)c4ccco4)C[C@@H]3C(=O)NO)cc2)c2ccccc2n1,0.1 10e-6 cm s-1

# Species on record: Homo sapiens
# Test: In vitro inhibition of TNF-alpha production was determined by using LPS-stimulated human whole blood assay (WBA)
# Assay type: functional
# Conditions: not given
row,SMILES,IC50
1,Cc1cc(COc2ccc(NC(=O)[C@H]3CCN(C(=O)OC4CC4)C[C@@H]3C(=O)NO)cc2)c2ccccc2n1,700 nM
2,Cc1cc(COc2ccc(NC(=O)[C@H]3NCCC[C@@H]3C(=O)NO)cc2)c2ccccc2n1,120 nM
3,Cc1cc(COc2ccc(NC(=O)[C@H]3CCN(C(=O)C4CC4)C[C@@H]3C(=O)NO)cc2)c2ccccc2n1,390 nM
4,Cc1cc(COc2ccc(NC(=O)[C@@H]3[C@@H](C(=O)NO)CCCN3Cc3nccs3)cc2)c2ccccc2n1,1400 nM
5,Cc1cc(COc2ccc(NC(=O)[C@H]3CCN(C(=O)c4ccco4)C[C@@H]3C(=O)NO)cc2)c2ccccc2n1,170 nM

# Now from value to compound:
row,IC50,SMILES
1,1300 nM,O=C(NO)[C@H]1CN(C(=O)C2CC2)CC[C@@H]1C(=O)Nc1ccc(OCc2ccnc3ccccc23)cc1
2,400 nM,Cc1cc(COc2ccc(NC(=O)[C@@H]3[C@@H](C(=O)NO)CCCN3CC3CC3)cc2)c2ccccc2n1
3,100 nM,CCN1CCC[C@H](C(=O)NO)[C@H]1C(=O)Nc1ccc(OCc2cc(C)nc3ccccc23)cc1
4,270 nM,Cc1cc(COc2ccc(NC(=O)[C@H]3CCN(C(=O)C(C)C)C[C@@H]3C(=O)NO)cc2)c2ccccc2n1

# Biological target: Disintegrin and metalloproteinase domain-containing protein 17 (Sus scrofa, UniProt O77636)
# Sequence (O77636 whole entry, the tested form may be a part): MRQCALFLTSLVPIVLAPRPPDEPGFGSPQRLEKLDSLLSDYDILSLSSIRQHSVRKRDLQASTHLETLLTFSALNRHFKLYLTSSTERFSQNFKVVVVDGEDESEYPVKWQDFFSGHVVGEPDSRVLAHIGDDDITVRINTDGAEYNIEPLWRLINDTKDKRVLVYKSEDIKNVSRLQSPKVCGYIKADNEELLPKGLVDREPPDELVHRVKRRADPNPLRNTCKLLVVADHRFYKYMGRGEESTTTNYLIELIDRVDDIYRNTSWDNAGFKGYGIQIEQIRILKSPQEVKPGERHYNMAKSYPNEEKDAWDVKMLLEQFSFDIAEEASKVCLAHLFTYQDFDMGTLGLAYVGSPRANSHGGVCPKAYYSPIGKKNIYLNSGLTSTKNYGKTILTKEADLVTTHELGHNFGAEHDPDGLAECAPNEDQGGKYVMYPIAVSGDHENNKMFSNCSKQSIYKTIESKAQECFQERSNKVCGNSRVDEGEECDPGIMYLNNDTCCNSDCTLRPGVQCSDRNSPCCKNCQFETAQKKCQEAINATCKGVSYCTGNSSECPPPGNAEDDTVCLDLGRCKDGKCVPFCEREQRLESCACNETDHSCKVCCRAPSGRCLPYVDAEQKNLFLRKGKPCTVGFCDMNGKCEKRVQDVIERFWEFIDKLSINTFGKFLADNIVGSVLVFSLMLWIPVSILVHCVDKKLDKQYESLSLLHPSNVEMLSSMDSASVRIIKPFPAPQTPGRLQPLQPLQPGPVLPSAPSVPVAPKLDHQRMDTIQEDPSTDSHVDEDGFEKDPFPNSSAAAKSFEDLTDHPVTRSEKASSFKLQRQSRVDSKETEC
# Test: In vitro binding affinity against porcine TACE
# Conditions: not given
row,SMILES,IC50
1,Cc1cc(COc2ccc(NC(=O)[C@H]3CCN(C(=O)OC4CC4)C[C@@H]3C(=O)NO)cc2)c2ccccc2n1,0.83 nM
2,Cc1cc(COc2ccc(NC(=O)[C@H]3NCCC[C@@H]3C(=O)NO)cc2)c2ccccc2n1,1 nM
3,Cc1cc(COc2ccc(NC(=O)[C@H]3CCN(C(=O)C4CC4)C[C@@H]3C(=O)NO)cc2)c2ccccc2n1,0.45 nM
4,Cc1cc(COc2ccc(NC(=O)[C@@H]3[C@@H](C(=O)NO)CCCN3Cc3nccs3)cc2)c2ccccc2n1,1 nM
5,Cc1cc(COc2ccc(NC(=O)[C@H]3CCN(C(=O)c4ccco4)C[C@@H]3C(=O)NO)cc2)c2ccccc2n1,0.066 nM

# Results, then the compound that gave them:
row,IC50,SMILES
1,1 nM,O=C(NO)[C@H]1CN(C(=O)C2CC2)CC[C@@H]1C(=O)Nc1ccc(OCc2ccnc3ccccc23)cc1
2,1 nM,Cc1cc(COc2ccc(NC(=O)[C@@H]3[C@@H](C(=O)NO)CCCN3CC3CC3)cc2)c2ccccc2n1
3,8 nM,CCN1CCC[C@H](C(=O)NO)[C@H]1C(=O)Nc1ccc(OCc2cc(C)nc3ccccc23)cc1
4,0.22 nM,Cc1cc(COc2ccc(NC(=O)[C@H]3CCN(C(=O)C(C)C)C[C@@H]3C(=O)NO)cc2)c2ccccc2n1
